Holding throughout (format): cell-based, human
One assay concerns the target NPC1 promoter. The experiment in a line: qHTS of NPC1 Promoter-Luciferase Reporter Gene Assay (firefly, Huh7). Particulars: 24 hours. The method, then: (§1) qHTS of NPC1 Promoter-Luciferase Reporter Gene Assay. For the second primary screen, a promoter assay was developed by engineering a vector using approximately 1.5 kb of the NPC1 promoter to drive the expression of the firefly luciferase reporter gene. Thus, NPC1 promoter activation results in luciferase expression. This vector was used to generate Huh7 cell lines stably expressing the NPC1-luciferase vector. […] Cells were plated for assays in OPTI-MEM I reduced-serum medium supplemented with 10% FBS at 1,500 cells/well in 5 μL in 1,536-well white opaque plates with 23 nL/well of test compound in DMSO solution. The assay plates were incubated at 37° C. for 24 hours, after which 3 μL/well BriteLite plus luciferase detection reagent mixture (Perkin Elmer) was added. Luminescence signal was measured in a ViewLux plate reader (Perkin Elmer) after a 10 minute incubation at room temperature.
On the technique in general: In qHTS, concentration-response curves come from the screen itself.

Another assay has as its target Rab9 promoter. In words: qHTS of Rab9 Promoter-Luciferase Reporter Gene Assay (firefly, Huh7). Particulars: 24 hours. The method, then:
as §1, with “Rab9” for “NPC1”, “the” for “the second”, “Rab9-luciferase” for “NPC1-luciferase”

Assay [1] relates to NPC1 patient cell fibroblasts. In words: Filipin Staining Assay to Detect Free Cholesterol Accumulation in NPC Cells. As to conditions: filipin fluorescence relative to untreated cells; for activity at 1 µM: Homo sapiens, Fibroblast, read-out: % storage at 1 μM. The method, then: Filipin Staining Assay to Detect Free Cholesterol Accumulation in NPC Cells. Compounds were evaluated for their effect on the NPC1 cellular phenotype by staining treated NPC1 patient cell fibroblasts with filipin, which recognizes free unesterified cholesterol. Compounds that upregulate the NPC1 promoter were expected to reduce the filipin staining in treated NPC1 fibroblasts compared to untreated NPC1 fibroblasts, indicating clearance of unesterified cholesterol. Conversely, inhibitors of the NPC1 promoter were expected to increase filipin staining in wild-type fibroblasts, thus indicating the emergence of an NPC-like phenotype. Briefly, cells were grown in lipoprotein-deficient medium for 3-4 days, and then the medium was replaced and supplemented with test compound plus 50 μg/mL low-density lipoprotein (LDL). After 24-48 hours, cells were stained with filipin and scored under the 40× magnification filter using the integrated morphometry function in the Metavue program (Molecular Devices). Test compounds that decreased the intensity of filipin fluorescence to less than 50% of untreated cells are considered of particular interest.

Marks after values point to notes of the source that are not given here.

As to `CCN(CC)S(=O)(=O)c1cccc(NC(=O)c2[nH]c(C)c(C(C)=O)c2C)c1` [Example 2], at NPC1 promoter, the EC50 (in general, the midpoint of the concentration-response curve) worked out at 7.7 µM and the “NPC1 Eff.” value amounted to 155%. At Rab9 promoter, the midpoint of the response, the EC50, lay at 8.7 µM and the “Rab9 Eff.” value was found to be 181%.
Consider `Cc1ccc(C(=O)Nc2cccc(S(=O)(=O)N(C)C)c2)cc1` [Example 13], for which the “NPC1 EC50” value with NPC1 promoter is “Inactive”. Also, on Rab9 promoter, it took 6.9 µM to reach a half-maximal effect (EC50) and the “Rab9 Eff.” value came to 54%.
With `COc1ccc(NC(=O)c2ncc[nH]2)cc1S(=O)(=O)Nc1ccc(Br)cc1` [Example 55], the “% storage at 1 μM” value in assay [1] turned out to be 30%.
As to `CC(=O)c1c(C)[nH]c(C(=O)Nc2cccc(S(=O)(=O)N3CCCCCC3)c2)c1C` [Example 5], at NPC1 promoter, the EC50 lay within 2.7 to 2.9 µM and the “NPC1 Eff.” value was 196-205%. Besides, on Rab9 promoter, the EC50 is 2 µM and the “Rab9 Eff.” value is listed as 153%.
Take `Cc1cccc(C(=O)Nc2cccc(S(=O)(=O)N(C)C)c2)c1` [Example 15]: on NPC1 promoter, the EC50 was determined as 6.1 µM and the “NPC1 Eff.” value was determined as 81%. For the same molecule, at Rab9 promoter, a half-maximal response (EC50) required 19.4 µM and the “Rab9 Eff.” value was 75%.
In the same order, the values of `CC(=O)c1c(C)[nH]c(C(=O)Nc2cccc(S(=O)(=O)N3CCCC3)c2)c1C` [Example 3] are 6.1 µM, 112%, 7.7 µM and 149%.
Regarding `CCc1ccc(NC(=O)c2[nH]c(C)c(C(C)=O)c2C)cc1S(=O)(=O)Nc1ccc(C#N)cc1` [Example 38], the “% storage at 1 μM” value in assay [1] came to 62%. For the same molecule, at NPC1 promoter, the EC50 came out at 3.4 µM and the “NPC1 Eff.” value is reported as 259%.
On to `COc1ccc(NC(=O)c2c[nH]c(-c3ccccc3)n2)cc1S(=O)(=O)Nc1ccc(Br)cc1` [Example 57], for which, in assay [1], the “% storage at 0.1 μM” value is 70% and the “% storage at 1 μM” value worked out at 41%.
With `CC(=O)c1c(C)[nH]c(C(=O)Nc2cccc(S(=O)(=O)N3CCN(C)CC3)c2)c1C` [Example 6], the “NPC1 EC50” value in the assay with NPC1 promoter was “Inactive”. Besides, on Rab9 promoter, the EC50 is 10.9 µM and the “Rab9 Eff.” value was found to be 82%.
For `Cc1ccc(C(=O)Nc2cccc(S(=O)(=O)N(C)C)c2)c(C)c1` [Example 18], on NPC1 promoter, a half-maximal effect (EC50) was put at 5.4 µM and the “NPC1 Eff.” value is reported as 79%. On Rab9 promoter, the EC50 turned out to be 12.2 µM and the “Rab9 Eff.” value was 97%.
For `CC(=O)c1c(C)[nH]c(C(=O)Nc2cccc(S(=O)(=O)N3CCCCC3)c2)c1C` [Example 4], at NPC1 promoter, the concentration for a half-maximal effect (EC50) stood at 2.7 µM and the “NPC1 Eff.” value is on record as 163%. Also, at Rab9 promoter, the EC50 turned out to be 1.7 µM and the “Rab9 Eff.” value was 134%.
`COc1ccc(NC(=O)c2[nH]c(C)c(C(C)=O)c2C)cc1S(=O)(=O)Nc1cccc(C#N)c1` [Example 40]: the “% storage at 1 μM” value in assay [1] turned out to be 29%. In addition, at NPC1 promoter, the half-maximal effective concentration (EC50) amounted to 0.9 µM and the “NPC1 Eff.” value was 129%.
Turning to `CC(=O)c1ccc(C(=O)Nc2cccc(S(=O)(=O)N(C)C)c2)cc1` [Example 20], the “NPC1 EC50” value with NPC1 promoter is “Inactive”. At Rab9 promoter, the EC50 amounted to 10.9 µM and the “Rab9 Eff.” value came out at 110%.
As to `Cc1cc(C)c(C(=O)Nc2cccc(S(=O)(=O)N(C)C)c2)[nH]1` [Example 8], at NPC1 promoter, the EC50 worked out at 17.2 µM and the “NPC1 Eff.” value worked out at 48%. At Rab9 promoter, the EC50 amounted to 38.7 µM and the “Rab9 Eff.” value is recorded as 82%.
With `CC(=O)c1cccc(C(=O)Nc2cccc(S(=O)(=O)N(C)C)c2)c1` [Example 19], on NPC1 promoter, the EC50 was 8.6 µM and the “NPC1 Eff.” value was 40%. At Rab9 promoter, the EC50 is 19.4 µM and the “Rab9 Eff.” value was 94%.
Regarding `CCc1ccc(NC(=O)c2[nH]c(C)c(C(C)=O)c2C)cc1S(=O)(=O)Nc1ccc(Br)cc1` [Example 35], at NPC1 promoter, a half-maximal effect (EC50) was put at 0.7 µM and the “NPC1 Eff.” value amounted to 208%.
Take `Cc1ccccc1C(=O)Nc1cccc(S(=O)(=O)N(C)C)c1` [Example 14]: at NPC1 promoter, the EC50 is 4.8 µM and the “NPC1 Eff.” value is 51%. Also, on Rab9 promoter, the EC50 was 17.3 µM and the “Rab9 Eff.” value turned out to be 114%.
Regarding `COc1ccc(NC(=O)c2[nH]c(C)c(C(C)=O)c2C)cc1S(=O)(=O)Nc1ccc(Cl)cc1` [Example 58], in assay [1], the “% storage at 1 μM” value was 58%.
As to `Cc1cccc(C)c1C(=O)Nc1cccc(S(=O)(=O)N(C)C)c1` [Example 17], on NPC1 promoter, it took 5.4 µM to reach a half-maximal effect (EC50) and the “NPC1 Eff.” value stood at 127%. Further, at Rab9 promoter, the EC50 was found to be 5.5 µM and the “Rab9 Eff.” value is recorded as 131%.
Turning to `CC(=O)c1c(C)[nH]c(C(=O)Nc2ccc(C)c(S(=O)(=O)Nc3ccc(Br)cc3)c2)c1C` [Example 34], at NPC1 promoter, the EC50 amounted to 1.7 µM and the “NPC1 Eff.” value is listed as 248%.
As for `CC(=O)c1c(C)[nH]c(C(=O)Nc2cccc(S(=O)(=O)Nc3ccc(Br)cc3)c2)c1C` [Example 32], at NPC1 promoter, the EC50 worked out at 4.3 µM and the “NPC1 Eff.” value is recorded as 80%.
Turning to `COc1ccc(NC(=O)c2[nH]c(C)c(C(C)=O)c2C)cc1S(=O)(=O)Nc1ccc(C#N)cc1` [Example 41], in assay [1], the “% storage at 1 μM” value came out at 58%. Moreover, on NPC1 promoter, it took 8.7 µM to reach a half-maximal effect (EC50) and the “NPC1 Eff.” value is recorded as 100%.
Turning to `CC(=O)c1c(C)[nH]c(C(=O)Nc2cccc(S(=O)(=O)Nc3cccc(C#N)c3)c2)c1C` [Example 31], in assay [1], the “% storage at 1 μM” value is reported as 56%. For the same molecule, in the assay on NPC1 promoter, the “NPC1 EC50” value was “Inactive”.
In the case of `CC(=O)c1c(C)[nH]c(C(=O)Nc2cccc(S(=O)(=O)N3CCOCC3)c2)c1C` [Example 7], on NPC1 promoter, the midpoint of the response, the EC50, lay at 8.3 µM and the “NPC1 Eff.” value is recorded as 84%. Also, on Rab9 promoter, the response was half-maximal at 12.2 µM (EC50) and the “Rab9 Eff.” value was found to be 122%.
In the case of `COc1ccc(NC(=O)c2[nH]c(C)c(C(C)=O)c2C)cc1S(=O)(=O)C1CCCCCC1` [Example 53], in assay [1], the activity at 1 µM was 24% and the “% storage at 0.1 μM” value came out at 55%.
Turning to `CCc1c(C)[nH]c(C(=O)Nc2cccc(S(=O)(=O)N(C)C)c2)c1C` [Example 9], on NPC1 promoter, the response was half-maximal at 8.6 µM (EC50) and the “NPC1 Eff.” value is 47%. Further, the “Rab9 EC50” value in the assay with Rab9 promoter is “Inactive”.
Consider `CC(=O)c1c(C)c(C(=O)Nc2cccc(S(=O)(=O)N(C)C)c2)n(C)c1C` [Example 10], for which, on NPC1 promoter, the midpoint of the response, the EC50, lay at 21.6 µM and the “NPC1 Eff.” value came to 83%. For the same molecule, the “Rab9 EC50” value in the assay on Rab9 promoter is listed as “Inactive”.
Consider `COc1ccc(NC(=O)c2[nH]c(C)c(C(C)=O)c2C)cc1S(=O)(=O)C1CCc2ccccc2CC1` [Example 59], for which the activity at 1 µM in assay [1] amounted to 40%.
As for `CN(C)S(=O)(=O)c1cccc(NC(=O)c2ccccc2C(F)(F)F)c1` [Example 16], at NPC1 promoter, the EC50 was found to be 1.2 µM and the “NPC1 Eff.” value was found to be 125%. Also, at Rab9 promoter, the EC50 came to 1.4 µM and the “Rab9 Eff.” value came to 155%.
For `CC(=O)c1c(C)[nH]c(C(=O)Nc2ccc(OCCCN(C)C)c(S(=O)(=O)Nc3ccc(Br)cc3)c2)c1C` [Example 54], in assay [1], the “% storage at 1 μM” value is 60%.
As to `COc1ccc(NC(=O)c2c[nH]cn2)cc1S(=O)(=O)Nc1ccc(Br)cc1` [Example 56], in assay [1], the “% storage at 0.1 μM” value was determined as 50% and the “% storage at 1 μM” value amounted to 48%.
As for `CCc1ccc(NC(=O)c2[nH]c(C)c(C(C)=O)c2C)cc1S(=O)(=O)Nc1cccc(C#N)c1` [Example 33], in assay [1], the “% storage at 0.1 μM” value is 43% and the “% storage at 1 μM” value stood at 35%. For the same molecule, at NPC1 promoter, it took 2.7 µM to reach a half-maximal effect (EC50) and the “NPC1 Eff.” value came to 140%.
In the case of `CC(=O)c1c(C)[nH]c(C(=O)Nc2cccc(S(=O)(=O)Nc3ccc(Br)c(F)c3)c2)c1C` [Example 23], at NPC1 promoter, a half-maximal effect (EC50) was put at 15.4 µM and the “NPC1 Eff.” value is listed as 71^a %.

The values above are taken from patent US10239830B2, “Benzenesulfonamide upregulators of NPC1 for Neimann-Pick disease and other lysosomal storage disorders” (ICAHN SCHOOL OF MEDICINE AT MOUNT SINAI, priority 2015, dated 2019).
